According to patent US4814485A, “4-aminobutanoic acid derivatives, process of preparation and use thereof” (Sanofi, priority 1985, dated 1989):
pIC50: −log10 of the molar value.

Target: T1, human plasma renin (Homo sapiens, UniProt P00797)
T1 construct: human plasma renin activity; from tissue; host or cells: human plasma
T1 sequence (P00797 67-406): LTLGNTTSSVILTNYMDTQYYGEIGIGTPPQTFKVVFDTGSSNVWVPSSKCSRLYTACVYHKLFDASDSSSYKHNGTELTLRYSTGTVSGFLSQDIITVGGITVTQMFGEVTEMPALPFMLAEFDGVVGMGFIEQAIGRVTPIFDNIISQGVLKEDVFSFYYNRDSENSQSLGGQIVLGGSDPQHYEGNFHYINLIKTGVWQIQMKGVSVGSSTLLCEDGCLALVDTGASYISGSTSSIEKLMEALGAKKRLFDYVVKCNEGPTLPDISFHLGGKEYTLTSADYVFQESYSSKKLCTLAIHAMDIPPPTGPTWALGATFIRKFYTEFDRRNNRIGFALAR
Test: inhibitory action on the human plasma renin activity
Format: biochemical
Settings: pH=6, method of European patent application No. 104,964, read-out: IC50 (dose of compound under study which causes 50% inhibition of the human plasma renin activity)
Text: The peptide so obtained was studied for determining its inhibitory action on the human plasma renin activity using the method described in European patent application No. 104,964.

How did the pIC50 turn out when “BOC-Phe-Nle-APHBA-Ala-Sta-OCH3 [SR 44205]” was run?
The pIC50 was 6.00.
